Measurements reported in US11746383B2, “Biomarker DLEC1 for cancer” (The Chinese University of Hong Kong, priority 2018, dated 2023).
Blank lines part the entries; values can stand above or below the compound they belong to.

Columns and labels:
[1] = tested on: DLEC1 expression in ESCC, lung and NPC carcinoma cell lines; assay: Demethylation treatment (Aza, TSA) and DLEC1 expression / promoter methylation analysis (RT-PCR, MSP, BGS); type: cell-based, human
Text: A panel of ESCC, NPC and lung carcinoma cell lines was used. Immortalized normal esophageal epithelial (NE1, NE3, Het-1A), normal nasopharyngeal epithelial (NP69) and HEK293T cell lines were used. Cell lines were maintained in RPMI or DMEM medium (Gibco BRL, Rockville, Md.) with 10% fetal bovine serum. Human normal adult tissue RNA samples were obtained commercially (Stratagene, La Jolla, Calif., or Millipore Chemicon, Billerica, Mass.). Primary carcinoma tissues of Chinese ESCC, NPC and lung, some with matched normal samples, have been descried before. Cell lines were treated with 5 μM of 5-Aza-2′-deoxycytidine (Aza) (Sigma, St. Louis, Mo.) for 3 days, or even followed with ˜16 h additional TSA (final concentration […]) treatment as described. MSP and BGS were conducted according to previous reports. MSP was conducted for 40 cycles at the annealing temperatures of 60° C. for M and 58° C. for U. Amplified products from BGS primer set were cloned into pCR4-Topo vector (Invitrogen, Carlsbad, Calif.), with 6-8 colonies randomly chosen and sequenced. RNA was reverse-transcribed using MuLV reverse transcriptase (GeneAmp RNA PCR kit, Applied Biosystems). RT-PCR was performed as described previously using GAPDH as a control.

carcinoma cells [2] = assay: Scratch wound-healing assay; type: cell-based, human; settings: confluent monolayer, versus mock cells
Experimental: Cell motility was assessed using a scratch wound-healing assay. Cells transient transfected with DLEC1 were cultured in 6-well plates until confluent. A single scratch was produced in the cell layer using a sterile tip. After incubation for 24 and 48 hours, cells were photographed under a phase contrast microscope. The experiments were performed in triplicates.

[3] = tested on: p-ERK, p-AKT, p-STAT3, active β-catenin; assay: Western blot of signaling protein phosphorylation; type: cell-based, human
Experimental: (§1) Human IL-6 (PF01229) (Peprotech, Rocky Hill, N.J.) was used. Western blot and IP experiments were performed according to previous protocols.

carcinoma cells [4] = assay: Cell apoptosis assay (Annexin V-FITC/PI flow cytometry, Western blot of apoptosis markers); type: cell-based, human
Experimental: (§2) Flow cytometry analysis of cell cycle and apoptosis was described previously. Cells were stained with propidium iodide (PI) and Annexin V-FITC (BD Biosciences, Bedford, Mass.), and sorted by Accuri C6 (BD Biosciences, Bedford, Mass.) according to the manufacturer's protocol.
as §1

[5] = tested on: multiple carcinoma cells stably-expressing DLEC1; assay: Cell proliferation (MTT) assay; type: cell-based, human
Experimental: (§3) Four pairs of primers (Table 6) were used to generate 4 DLEC1 fragments based on published DLEC1 sequence (GenBank accession number AB020522). Reverse transcription was carried out using normal testis RNA as template (BD Biosciences, Palo Alto, Calif.). The 4 product fragments were ligated to generate pcDNA3.1(+)-Flag-DLEC1 and pCMV-Flag-DLEC1-V5 expression plasmids. The mutation for three YXXQ motifs of DLEC1 (DLEC1-3Y, YXXQ-GGGG (“GGGG” disclosed as SEQ ID NO: 7)) was introduced by PCR into pCMV-Flag-DLEC1-V5 vector, with sequence confirmed. STAT3C expression plasmid was a gift from Prof. Honglin Chen (University of Hong Kong). Cells were transfected with lipofectamine 3000 (Invitrogen, Carlsbad, Calif.), and the cells were cultured in RPMI 1640 supplemented with 10% FBS and selected in 400 μg/mL of G418 for 20-30 days to establish some stable cell pools, with confirmed DLEC1 expression.
(§4) Colony formation assay was conducted as previously described. All experiments were performed in triplicate wells 3 times. To monitor cell proliferation, 1000 cells were plated in a 96-well plate and incubated at 37° C. in selective media for 3-(4,5-dimethylthiazolyl-2)-2,5-diphenyltetrazolium bromide (MTT) assay.

[6] = tested on: ESCC, lung and NPC carcinoma cells; assay: Monolayer colony formation assay; type: cell-based, human; settings: ectopically expressed DLEC1 in ESCC
Experimental: as §3, §4

[7] = tested on: NF-κB, AP-1, STATs-bs, TopFlash, SRE and PAI-1 reporters; assay: Dual-luciferase reporter assay of signaling pathways; type: cell-based, human; settings: carcinoma cells (ESCC, lung, NPC) or immortalized normal epithelial cells (NP69)
Experimental: The promoter activities were determined by luciferase reporter assays. Luciferase reporters of several key signaling pathways, including NF-κB-luc, AP-1-luc, SRE-luc, STATs-bs-luc, TopFlash-luc, and PAI-luc were used to examine signaling pathway regulated by DLEC1 Cells were transiently co-transfected with DLEC1 expression vector and phRL-TK […]. […] After 48 h, cells were lysed and luciferase activities were measured using Dual-Luciferase® Reporter Assay System (Promega, Madison, Wis.). To normalize transfection efficiency, phRL-TK luciferase activities were measured as an internal control. At least three independent experiments were performed, with each repeated in triplicates.

STAT3 = target: T1, STAT3 (Homo sapiens, UniProt P40763); assay: Co-immunoprecipitation with STAT3; type: binding
T1 construct: Association of endogenous DLEC1 and STAT3 proteins in HEK293T cells; endogenous in cells; host or cells: HEK293T
Experimental: as §1

[8] = tested on: KYSE150, H1299 and HONE1 cells; assay: Cell cycle analysis by flow cytometry (propidium iodide); type: cell-based, human; settings: DLEC1-expressing KYSE150, H1299 and HONE1 cells
Text: as §2

[9] = tested on: ESCC, lung and NPC carcinoma cells; assay: Transwell migration and Matrigel invasion assays; type: cell-based, human; settings: transwell assay, ectopic expression of DLEC1
Experimental: Transwell migration and invasion assays were performed as previously described. The numbers of migrated or invaded cells were observed and counted using a light microscope. Five fields were randomly chosen and the numbers of penetrated cells were counted.

JAK2 = target: T2, JAK2 (Homo sapiens, UniProt O60674); assay: Co-immunoprecipitation with JAK2; type: binding
T2 construct: endogenous in cells; host or cells: HEK293T
Experimental: as §1

carcinoma cells [10] = assay: EMT, actin stress fiber and stemness marker analysis (immunofluorescence, Western blot, qPCR); type: cell-based, human
Experimental: RNA was reverse-transcribed using MuLV reverse transcriptase (GeneAmp RNA PCR kit, Applied Biosystems). RT-PCR was performed as described previously using GAPDH as a control.
Cells grown on coverslips were stained by indirect immunofluorescence as described previously. Briefly, cells were incubated with primary antibodies against DLEC1, E-cadherin, or Vimentin and then incubated with Alexa Fluor 594-conjugated secondary antibody against mouse IgG (A11062) (Invitrogen Molecular Probes, Carlsbad, Calif.), or FITC-conjugated secondary antibody against rabbit IgG (F0205) (DAKO, Denmark). To analyze the effects of DLEC1 on actin stress fiber formation, cells were serum starved for 24 h before incubation in medium-containing 5% fetal bovine serum. After 1 h, cells were fixed and stained by Rhodamine-labeled phalloidin (Invitrogen Molecular Probes). Cells were then counterstained with DAPI and imaged with an Olympus BX51 microscope (Olympus Corporation, Tokyo, Japan).

DLEC1 CGI = assay: ChIP assay, acetylated histone H4; type: cell-based, human; settings: carcinoma cells following TSA treatment
Experimental: ChIP assay was performed as described previously. Antibody to acetylated histone H4 (Upstate Biotechnology) was used to precipitate cross-linked chromatin. ACTIN was employed as a control for normalization of each PCR product.

T2 sequence (O60674 whole entry): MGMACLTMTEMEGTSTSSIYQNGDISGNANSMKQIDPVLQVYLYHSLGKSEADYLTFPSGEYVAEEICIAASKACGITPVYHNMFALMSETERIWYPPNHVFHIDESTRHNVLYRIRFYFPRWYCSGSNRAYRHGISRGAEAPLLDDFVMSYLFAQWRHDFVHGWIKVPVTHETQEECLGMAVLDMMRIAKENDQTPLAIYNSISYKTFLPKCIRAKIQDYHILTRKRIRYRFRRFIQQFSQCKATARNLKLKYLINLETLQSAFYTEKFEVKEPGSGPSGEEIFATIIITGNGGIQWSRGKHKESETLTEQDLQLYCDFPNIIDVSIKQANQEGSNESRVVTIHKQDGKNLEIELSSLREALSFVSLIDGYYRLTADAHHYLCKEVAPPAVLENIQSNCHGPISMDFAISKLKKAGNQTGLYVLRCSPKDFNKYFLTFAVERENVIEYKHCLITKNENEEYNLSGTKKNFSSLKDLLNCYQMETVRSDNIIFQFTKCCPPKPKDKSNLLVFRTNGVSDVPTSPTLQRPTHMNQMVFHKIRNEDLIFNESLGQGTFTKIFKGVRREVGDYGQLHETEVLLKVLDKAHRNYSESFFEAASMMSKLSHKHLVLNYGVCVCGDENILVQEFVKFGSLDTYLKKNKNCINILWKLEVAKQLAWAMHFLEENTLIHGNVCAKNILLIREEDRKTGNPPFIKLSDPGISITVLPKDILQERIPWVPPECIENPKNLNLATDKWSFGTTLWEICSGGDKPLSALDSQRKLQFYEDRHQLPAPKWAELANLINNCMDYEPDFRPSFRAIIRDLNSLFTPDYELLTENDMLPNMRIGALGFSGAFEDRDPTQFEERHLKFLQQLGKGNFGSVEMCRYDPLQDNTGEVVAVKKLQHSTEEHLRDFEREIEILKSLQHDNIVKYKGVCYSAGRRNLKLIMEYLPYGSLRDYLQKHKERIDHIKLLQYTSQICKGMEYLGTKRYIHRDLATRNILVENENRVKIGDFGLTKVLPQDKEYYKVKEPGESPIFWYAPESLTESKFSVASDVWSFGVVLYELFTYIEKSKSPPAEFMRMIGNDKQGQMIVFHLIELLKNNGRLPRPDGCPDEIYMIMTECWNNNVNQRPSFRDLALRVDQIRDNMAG
T1 sequence (P40763 whole entry): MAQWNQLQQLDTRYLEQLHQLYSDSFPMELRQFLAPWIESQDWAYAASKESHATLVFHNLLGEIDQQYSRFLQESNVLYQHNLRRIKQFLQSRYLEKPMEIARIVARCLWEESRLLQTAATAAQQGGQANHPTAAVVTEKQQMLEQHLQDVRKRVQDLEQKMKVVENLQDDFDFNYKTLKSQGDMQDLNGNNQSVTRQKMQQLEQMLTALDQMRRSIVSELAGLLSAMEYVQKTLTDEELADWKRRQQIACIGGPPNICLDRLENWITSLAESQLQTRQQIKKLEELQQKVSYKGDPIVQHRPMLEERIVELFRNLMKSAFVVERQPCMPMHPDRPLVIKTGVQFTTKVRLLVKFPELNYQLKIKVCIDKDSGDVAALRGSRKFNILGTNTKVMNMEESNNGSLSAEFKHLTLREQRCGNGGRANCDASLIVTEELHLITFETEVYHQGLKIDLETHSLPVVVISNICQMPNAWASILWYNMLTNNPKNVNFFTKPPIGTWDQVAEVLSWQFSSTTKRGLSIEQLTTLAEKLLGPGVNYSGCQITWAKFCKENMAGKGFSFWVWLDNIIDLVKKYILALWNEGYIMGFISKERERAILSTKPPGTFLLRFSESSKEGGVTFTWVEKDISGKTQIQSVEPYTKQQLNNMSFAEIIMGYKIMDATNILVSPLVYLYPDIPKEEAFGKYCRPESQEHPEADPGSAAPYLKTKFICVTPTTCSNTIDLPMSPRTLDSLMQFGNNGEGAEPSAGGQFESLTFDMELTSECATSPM

Compound: Nc1ncn([C@H]2C[C@H](O)[C@@H](CO)O2)c(=O)n1 [Aza, 5-aza-2′-deoxycytidine]
Expression of DLEC1 ([1]; NPC cells): restored or increased | DLEC1 expression ([1]; cell lines of ESCC, lung and NPC with silenced DLEC1, 5 μM Aza for 3 days, or followed with ~16 h TSA): increased

interaction of DLEC1 with STAT3 (STAT3; IL-6 stimulation): increased | interaction with STAT3/p-STAT3 (Tyr705) (STAT3; endogenous proteins, HEK293T cells, immunoprecipitation): strong interaction | interaction of STAT3 with JAK2 (JAK2; IL-6 dependent manner): inhibited | interaction with JAK2 and p-STAT3 (Tyr705) (JAK2; IL-6 stimulation): decreasing | co-precipitation of JAK2 (JAK2; endogenous proteins, HEK293T cells): relatively weaker co-precipitation
Compound: DLEC1: 1755-amino acid human DLEC1 protein (SEQ ID NO:4), ectopically expressed from pcDNA3.1(+)-Flag-DLEC1 / pCMV-Flag-DLEC1-V5 plasmids
closing of artificial wounds (carcinoma cells [2]): less proficiency in closing artificial wounds than mock cells | levels of p-ERK (Thr202/Tyr204), p-AKT (Ser473), p-STAT3 (Tyr705 and Ser727) and active β-catenin ([3]; DLEC1-expressing carcinoma cells): significantly decreased | IL-6 treatment-enhanced STAT3 phosphorylation levels ([3]; IL-6 10 ng/mL for 30 min, KYSE150 and H1299 cells): suppress | p-STAT3 levels at both Tyr705 and Ser727 sites ([3]; STAT3C-transfected carcinoma cells): greatly suppressed | p-STAT3 (Tyr705) ([3]; increasing doses of DLEC1-expressing plasmids, dose-dependent): Marked decrease | apoptosis markers (cleaved caspase-3 and PARP) (carcinoma cells [4]; Western blot): increase | apoptotic cells (carcinoma cells [4]; after transfection with DLEC1-expression vector): significantly increased | growth rates [5]: slower growth rates | colony numbers and sizes compared to controls [6]: 10-40% | reporter activities of NF-κB, AP-1, STATs-bs, TopFlash, SRE and PAI-1 elements-regulated promoters [7]: markedly repressed | cell cycle distribution [8]: increased G2-M phase cells and decreased S phase cells | cell invasion [9]: dramatically suppressed | cell migration [9]: dramatically suppressed | stem cell markers (STAT3, CD44, ABCG2, TWIST and KLF4) (carcinoma cells [10]; ESCC and lung carcinoma cells, qPCR): downregulated | E-cadherin, vimentin and metastasis markers (MMP7, Twist) (carcinoma cells [10]; Western blot): Upregulated E-cadherin and downregulated vimentin and metastasis markers (MMP7, Twist) | formation of actin stress fibers (carcinoma cells [10]; carcinoma cells): disassembled | EMT markers E-cadherin and vimentin (carcinoma cells [10]; immunofluorescence): gain of epithelial marker E-cadherin and loss of mesenchymal marker vimentin

binding of acetylated histone 4 to the DLEC1 CGI (DLEC1 CGI): increased
Compound: CC(/C=C/C(=O)NO)=C\[C@@H](C)C(=O)c1ccc(N(C)C)cc1 [TSA, Trichostatin A]
DLEC1 expression ([1]; TSA-treated lung carcinoma cell line H1299): moderately induced
